Measured values reported in PubChem BioAssay (NCI).
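48-hour exposure; five concentrations; linearly interpolated endpoints. GI50 = concentration required for 50% inhibition of growth. TGI is the concentration that stops growth completely.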

Tests used:
Experiment in all cases: growth of human tumour cells (NCI), 48 h
[1] = tested on: ACHN renal
[2] = tested on: HCT-116 colon
[3] = tested on: HCT-15 colon
[4] = tested on: HOP-92 NSCLC
[5] = tested on: KM12 colon
[6] = tested on: MDA-MB-435
[7] = tested on: OVCAR-3 ovarian
[8] = tested on: SK-MEL-2 melanoma
[9] = tested on: SR leukemia
[10] = tested on: SW-620 colon

SMILES	GI50 [1]	TGI [1]	GI50 [2]	TGI [2]	GI50 [3]	TGI [3]	GI50 [4]	TGI [4]	GI50 [5]	TGI [5]	GI50 [6]	TGI [6]	GI50 [7]	TGI [7]	GI50 [8]	TGI [8]	GI50 [9]	TGI [9]	GI50 [10]	TGI [10]
C#C[C@]1(O)CC[C@H]2[C@@H]3CC=C4c5nc(Nc6ccccn6)sc5CC[C@]4(C)[C@H]3CC[C@@]21C	1.37 µM	10.2 µM	1.12 µM	2.73 µM	1.27 µM	2.94 µM	1.8 µM	4.43 µM	1.7 µM	4.5 µM	1.55 µM	4.45 µM	1.43 µM	3.29 µM	0.603 µM	3.08 µM	0.542 µM	3.24 µM	1.24 µM	2.91 µM
CS(=O)(=O)c1ccc(Cl)c([N+](=O)[O-])c1	16 µM	29.7 µM	12.9 µM	25.7 µM	5.91 µM	23.3 µM	18.3 µM	35 µM	14.8 µM	29.6 µM	18.9 µM	38.4 µM	17.8 µM	32.5 µM	23.2 µM	41.7 µM	15.3 µM	46.6 µM	12.8 µM	28.6 µM
Cc1ccc(C(=O)Nc2ccc(CN3CCN(C)CC3)c(C(F)(F)F)c2)cc1C#Cc1cnc(N)c2ccc(F)cc12	0.0791 µM	0.401 µM	0.192 µM	0.533 µM	0.112 µM	0.456 µM	0.18 µM	0.944 µM	0.186 µM	0.778 µM	0.123 µM	0.47 µM	0.359 µM	1.06 µM	0.27 µM	1.44 µM	0.262 µM	1.3 µM	0.251 µM	0.638 µM
